Experimental data: article PMC3642319, “Biochemical and Immunological Characterization of Toxoplasma gondii Macrophage Migration Inhibitory Factor” (The Journal of Biological Chemistry, 2013)

Tests used:
[1] = target: T1, HsMIF (Homo sapiens, UniProt P14174); experiment: dopachrome tautomerase assay, absorbance at […] nm; assay type: biochemical
T1 construct: gene MIF; commercial recombinant human MIF (R&D Systems)
T1 sequence (P14174 2-115): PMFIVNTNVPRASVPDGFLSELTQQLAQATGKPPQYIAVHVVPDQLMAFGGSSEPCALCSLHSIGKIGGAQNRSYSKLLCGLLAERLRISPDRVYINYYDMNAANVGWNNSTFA

[2] = tested on: COC(=O)[C@@H]1CC2=CC(=O)C(=O)C=C2N1; experiment: purified protein; conditions: L-DOPA methyl ester (1-20 mM) oxidised in situ with sodium periodate, sodium phosphate pH 6.2, 1 mM EDTA, 37 °C, paper names the substrate L-DOPA methyl ester

COC(=O)CC1CC(c2ccc(O)cc2)=NO1 (racemic) [ISO-1]
inhibition at 10 µM [1]: 60%

TgMIF (Toxoplasma gondii)
Km [2]: 9.6 mM
